{"source": "patent US12479852B2", "about": "“Compounds, compositions, and methods for protein degradation” (DANA-FARBER CANCER INSTITUTE, INC., priority 2019, dated 2025)", "test_system": "synovial sarcoma cell lines", "assay": "testing against a panel of synovial sarcoma cell lines (antiproliferation)", "assay_type": "cell-based", "conditions": "FIG. 1"}
{"smiles": "O=C(CCOCCOCCOCCNc1cccc2c1C(=O)N(C1CCC(=O)NC1=O)C2=O)NCCc1ccc(N2C[C@@H]3C[C@H]2CN3/C=C/C(=O)c2ccccc2O)cc1", "note": "(stereo partly drawn) [Compound E1, 3-(2-(2-(2-((2-(2,6-dioxopiperidin-3-yl)-1,3-dioxoisoindolin-4-yl)amino)ethoxy)ethoxy)ethoxy)-N-(4-((1S,4S)-5-((E)-3-(2-hydroxyphenyl)-3-oxoprop-1-en-1-yl)-2,5-diazabicyclo[2.2.1]heptan-2-yl)phenethyl)propanamide]", "values": [{"measurement": "antiproliferation effect against synovial sarcoma lines", "result": "antiproliferation effect"}]}
